The Bradley open melting point set (2014)
Values joined by “and” are separate entries in the source; they are usually repeats but may differ in a detail not shown here. Equal entries are not always repeated.

melting point | Compound
165 °C | O=C(/C=C/c1ccc(-c2ccc(Br)cc2)o1)c1ccco1
-13 °C | N#Cc1ccccc1 [Benzonitrile]
105 °C | O=C(O)COc1ccc(F)cc1 [4-fluorophenoxyacetic acid]
130 °C | Oc1cccc(N2CCOCC2)c1 [3-(4-morpholinyl)phenol]
192 °C | NC(=O)N1c2ccccc2C=Cc2ccccc21 [carbamazepine]
-7 °C | O=C(O)C1CCCC1 [cyclopentanecarboxylic acid]
74 °C | C=CCNC(N)=S [N-allylthiourea]
16.3 °C and 17 °C | CCCCCCCC(=O)O [octanoic acid]
205 °C | Cc1ncc(COP(=O)(O)O)c(C=O)c1O [Pyridoxal Phosphate]
134 °C | N#C/C(=N/Nc1cc(Cl)ccc1Cl)c1nc(-c2ccccc2)cs1
64 °C | OCc1ccccc1CO [1,2-benzenedimethanol]
95 °C | c1ccc(OCCOc2ccccc2)cc1 [1,2-diphenoxyethane]
174 °C | C[C@H](CCC(=O)O)[C@H]1CC[C@H]2[C@@H]3CC[C@@H]4C[C@H](O)CC[C@]4(C)[C@H]3C[C@H](O)[C@]12C [deoxycholic acid]
175 °C | O=C(O)C12CC3CC(CC(C3)C1)C2 [adamantane-1-carboxylic acid]
101 °C | COc1ccccc1C(=O)O [2-methoxybenzoic acid]
221 °C | COC(=O)c1ccc(C(=O)O)cc1 [mono-methyl_terephthalate]
168 °C | Cc1[nH]cnc1C=O [5-methylimidazole-4-carboxaldehyde]
236 °C | Cn1c(=O)c2c(ncn2C)n(C)c1=O [Caffeine]
151 °C | O=C1/C(=N/Nc2cccc([N+](=O)[O-])c2)C(C(F)(F)F)=NN1c1ccccc1
20 °C | COc1ccc(OC)c(C)c1 [2,5-dimethoxytoluene]
89 °C | O=Cc1cccc(C=O)c1 [isophthalaldehyde]

melting point | Compound
50 °C | Cc1ccc(C)n1-c1ccccc1 [2,5-dimethyl-1-phenylpyrrole]
106 °C | CCOC(=O)c1c[nH]nc1N [ethyl 3-amino-1h-pyrazole-4-carboxylate]
96.5 °C | CCCOC(=O)c1ccc(O)cc1 [Propyl 4-hydroxybenzoate]
142 °C | C=CC(=O)NCCNC(=O)C=C [N,N'-ethylenebisacrylamide]
200 °C | CS(=O)(=O)c1ccc(B(O)O)cc1 [4-(methylsulfonyl)benzeneboronic acid]
248 °C | Cc1ccnc2c1NC(=O)c1cccnc1N2C1CC1 [nevirapine]
66 °C | FC(F)(F)c1ccc2cccnc2c1 [7-(trifluoromethyl)quinoline]
199 °C | OCc1ccccc1O[C@@H]1O[C@H](CO)[C@@H](O)[C@H](O)[C@H]1O [D-salicin]
189 °C | Cc1cc(=O)oc2cc(O)ccc12 [4-methylumbelliferone]
109 °C | N#Cc1ccccc1[N+](=O)[O-] [2-nitrobenzonitrile]
210 °C | N[C@H](Cc1ccccc1F)C(=O)O [2-fluoro-D-phenylalanine]
186 °C | OB(O)c1ccc(N(Cc2ccccc2)Cc2ccccc2)cc1 [4-(dibenzylamino)benzeneboronic acid]
166 °C | Cn1c(/C(C#N)=N/Nc2cccc(Cl)c2)nc2ccccc21
128 °C | CCCNC(=O)NS(=O)(=O)c1ccc(Cl)cc1 [chlorpropamide]
161 °C | NC(=O)c1ccc(O)cc1 [4-hydroxybenzamide]
249 °C | OB(O)c1ccc(F)cc1F [2,4-difluorobenzeneboronic acid]
47 °C | CCc1ccc(-c2ccccc2)cc1 [1-ethyl-4-phenylbenzene]
140 °C | O=C1OCCOC(=O)C2CCCCC2C(=O)OCCOC(=O)C2CCCCC12 (configuration not stated)
-141 °C | C/C=C/C(C)C [4-methyl-trans-2-pentene]
15 °C | OC1CCCCCCC1 [cyclooctanol]
87 °C | CC(C)(C)OC(=O)N[C@@H](Cc1ccccc1)C(=O)O [N-boc-L-phenylalanine]

melting point | Compound
200 °C | CC1(C)[C@@H]2CC[C@@]1(C)C(=O)C2=O [(1R)-camphorquinone]
143 °C | CC1(C)OC(=O)C(=Cc2ccc(-c3ccccc3)o2)C(=O)O1
106 °C | O=C(CCBr)N1CCN(C(=O)CCBr)CC1 [pipobroman]
-10 °C | Fc1cccc2ccccc12 [1-fluoronaphthalene]
121 °C | COC(=O)c1cccc(C(=O)OC)n1 [dimethyl pyridine-2,6-dicarboxylate]
121 °C | CCOC(=O)/C(C#N)=C\c1ccc(-c2ccccc2OC)o1 [Ethyl (2Z)-2-cyano-3-[5-(2-methoxyphenyl)-2-furyl]acrylate]
266 °C | c1ccc2c(c1)ccc1cc3c(ccc4ccccc43)cc12 [Benzo[k]tetraphene]
85 °C | OCc1ccccc1O [2-hydroxybenzyl alcohol]
-115 °C | C=COCC [ethyl vinyl ether]
47 °C | Nc1ccccc1Oc1ccccc1 [2-phenoxyaniline]
314 °C | O=C(O)c1ccc(-c2cccc([N+](=O)[O-])c2)cc1 [3'-nitrobiphenyl-4-carboxylic acid]
-16.5 °C | O=C(O)CS [Sulfanylacetic acid]
221 °C | O=C(O)c1cccc2c1nnn2Cc1ccccc1 [1-Benzyl-1H-benzotriazole-4-carboxylic acid]
137 °C | N#Cc1cccc2c(N)cccc12 [5-aminonaphthalene-1-carbonitrile]
108 °C | Cc1ccccc1C1C=C(c2ccccc2)N=N1 (configuration not stated) [5-(2-methylphenyl)-3-phenyl-1H-pyrazole]
-34 °C | Fc1ccccc1F [1,2-difluorobenzene]
83 °C | Cc1cc(C)n(CN(CCO)Cn2nc(C)cc2C)n1 [2-{bis[(3,5-dimethyl-1H-pyrazol-1-yl)methyl]amino}ethanol]
222 °C and 226 °C (2×) | O=C(CO)[C@@]3(O)CC[C@H]2[C@@H]4CC\C1=C\C(=O)CC[C@]1(C)[C@H]4C(=O)C[C@@]23C [cortisone]
74.6 °C | CC(C)Cc1ccc(C(C)C(=O)O)cc1 (stereo not drawn) [(+/+)-ibuprofen]
69 °C | Oc1ccc(Nc2ccccc2)cc1 [4-hydroxydiphenylamine]
26 °C | CCCCCCCCCCCCCCCCC1CO1 (configuration not stated) [2-Hexadecyloxirane]

melting point | Compound
160 °C | O=C(O)c1ccccc1O [salicylic_acid]
146 °C | OB(O)c1cc2ccccc2nc1Br [2-bromoquinoline-3-boronic acid]
116 °C | c1ccc2c(c1)Cc1ccccc1-2 [9H-Fluorene]
-69 °C | CCCCCOCCCCC [1-(Pentyloxy)pentane]
92 °C | CCOC(=O)C(C#N)=C(SC)N(C)C [ethyl 2-cyano-3-(dimethylamino)-3-(methylthio)acrylate]
242 °C | O=C(O)/C(=C/c1ccc([N+](=O)[O-])cc1)c1ccc(F)cc1 [(E)-2-(4-Fluorophenyl)-3-(4-nitrophenyl)propenoic acid]
36 °C | Cc1cc(C)n(C)n1 [1,3,5-trimethyl-1h-pyrazole]
122 °C | O=C(O)COCCNC(=O)C12CC3CC(CC(C3)C1)C2
211 °C | O=c1c2ccccc2sc2ccccc12 [Thioxanthen-9-one]
240 °C | O=C1CSC(=S)N1c1ccccc1 [4-thiazolidinone, 3-phenyl-2-thioxo-]
152 °C | COc1ccc(C=C2N=C(c3ccccc3)OC2=O)cc1 [4-(4-methoxybenzylidene)-2-phenyl-1,3-oxazol-5(4H)-one]
-22 °C | CCOC(=O)CC#N [ethyl_cyanoacetate]
33 °C | CCCCCCCCCCCCCCCCCCC [Nonadecane]
80 °C | CCCCOc1ccc(-c2nnc3sc(/C=C/c4ccccc4)nn23)cc1
23 °C | CC(=O)c1ccccc1[N+](=O)[O-] [1-(2-Nitrophenyl)ethanone]
182 °C | Brc1ccccc1-c1nnn[nH]1 [5-(2-bromophenyl)-1h-tetrazole]
118 °C | C1=CC2=NC3=C(CCCC3)C2=CC1 [1,2,3,4-TETRAHYDROCARBAZOLE]
-108 °C | C1CCOC1 [tetrahydrofuran]
191 °C | CC1(C)CC(=O)c2c(cc3c(c2-c2ccccc2)-c2ccccc2OC3)C1

Compound | melting point
Cc1cccc(N)c1N [2,3-diaminotoluene] | 58 °C
CCCCCCCCCCBr [1-bromodecane] | -29 °C
O=Cc1ccccc1 [Benzaldehyde] | -56 °C
Clc1ccc(Cl)cc1 [1,4-Dichlorobenzene] | 55 °C
C=C[C@H]1C[N@@]2CC[C@H]1C[C@H]2[C@H](O)c1ccnc2ccccc12 [(8alpha,9R)-Cinchonan-9-ol] | 200 °C
C[C@H]1O[C@@H](O[C@H]2[C@@H](O)C[C@H](O[C@H]3[C@@H](O)C[C@H](O[C@H]4CC[C@@]5(C)[C@H](CC[C@@H]6[C@@H]5CC[C@]5(C)[C@@H](C7=CC(=O)OC7)CC[C@]65O)C4)O[C@@H]3C)O[C@@H]2C)C[C@H](O)[C@@H]1O [Digitoxin] | 256 °C
C[C@]12CC[C@H](O)[C@@H](O)[C@H]1CC[C@@H]1[C@@H]2CC[C@]2(C)C(=O)CC[C@@H]12 [(3beta,4alpha,5beta)-3,4-Dihydroxyandrostan-17-one] | 221 °C
ClC1=C(Cl)C2(Cl)C3C(Cl)C(Cl)CC3C1(Cl)C2(Cl)Cl (stereo not drawn) [trans-Chlordane] | 106 °C
ClCBr [Bromo(chloro)methane] | -88 °C
CCCCNCC(O)c1ccc(O)cc1 (configuration not stated) [bamethan] | 124 °C
ClCC(Cl)Cl [1,1,2-Trichloroethane] | -35 °C
CCOCC [diethyl ether] | -116 °C
Clc1cccc(Cl)c1 [1,3-Dichlorobenzene] | -24.8 °C
Oc1ccccc1I [2-Iodophenol] | 38.5 °C
Cc1cc(O)ccc1Cl [4-Chloro-3-methylphenol] | 67 °C
